In ChEMBL document CHEMBL4507319 (2021):

Legend:
Conditions in all cases: Compound concentration 1.0 uM
[1] = molecular target: T1, Activin receptor type-1B (Homo sapiens) (UniProt P36896); test: ALK4(h) Eurofins kinase panel
T1 sequence (whole entry): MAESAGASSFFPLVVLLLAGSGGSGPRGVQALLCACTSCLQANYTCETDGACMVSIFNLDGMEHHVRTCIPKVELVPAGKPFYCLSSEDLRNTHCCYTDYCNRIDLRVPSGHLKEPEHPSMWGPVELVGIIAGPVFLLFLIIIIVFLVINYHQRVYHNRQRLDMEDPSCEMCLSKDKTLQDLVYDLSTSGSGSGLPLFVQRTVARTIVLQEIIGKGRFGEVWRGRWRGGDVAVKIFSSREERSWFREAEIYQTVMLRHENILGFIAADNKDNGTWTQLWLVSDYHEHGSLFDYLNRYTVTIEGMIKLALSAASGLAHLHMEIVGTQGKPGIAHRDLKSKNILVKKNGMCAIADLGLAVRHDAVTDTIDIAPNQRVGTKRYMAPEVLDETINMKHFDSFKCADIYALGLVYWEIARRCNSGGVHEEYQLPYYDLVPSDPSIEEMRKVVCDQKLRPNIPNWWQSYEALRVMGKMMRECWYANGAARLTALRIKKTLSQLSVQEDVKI

[2] = molecular target: Bone morphogenetic protein receptor type-1B (Homo sapiens) (UniProt O00238); test: ALK6(h) Eurofins kinase panel
Bone morphogenetic protein receptor type-1B (Homo sapiens), sequence (O00238 whole entry): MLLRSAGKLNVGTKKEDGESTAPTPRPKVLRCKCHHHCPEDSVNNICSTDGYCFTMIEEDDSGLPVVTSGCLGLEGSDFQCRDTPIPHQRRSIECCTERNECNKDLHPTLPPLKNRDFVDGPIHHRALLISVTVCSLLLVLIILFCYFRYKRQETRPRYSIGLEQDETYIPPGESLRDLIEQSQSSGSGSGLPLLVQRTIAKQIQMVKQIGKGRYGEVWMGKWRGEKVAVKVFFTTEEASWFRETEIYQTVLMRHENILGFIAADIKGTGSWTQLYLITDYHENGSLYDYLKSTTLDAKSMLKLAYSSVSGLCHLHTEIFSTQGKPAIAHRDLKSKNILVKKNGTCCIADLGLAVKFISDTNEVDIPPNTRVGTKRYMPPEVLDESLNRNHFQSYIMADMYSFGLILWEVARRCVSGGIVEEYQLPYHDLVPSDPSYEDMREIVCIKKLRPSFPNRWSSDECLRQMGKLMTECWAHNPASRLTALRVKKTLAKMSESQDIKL

[3] = molecular target: Calcium/calmodulin-dependent protein kinase type II subunit alpha (Homo sapiens) (UniProt Q9UQM7); test: CaMKIIalpha(h) Eurofins kinase panel
Calcium/calmodulin-dependent protein kinase type II subunit alpha (Homo sapiens), sequence (Q9UQM7 whole entry): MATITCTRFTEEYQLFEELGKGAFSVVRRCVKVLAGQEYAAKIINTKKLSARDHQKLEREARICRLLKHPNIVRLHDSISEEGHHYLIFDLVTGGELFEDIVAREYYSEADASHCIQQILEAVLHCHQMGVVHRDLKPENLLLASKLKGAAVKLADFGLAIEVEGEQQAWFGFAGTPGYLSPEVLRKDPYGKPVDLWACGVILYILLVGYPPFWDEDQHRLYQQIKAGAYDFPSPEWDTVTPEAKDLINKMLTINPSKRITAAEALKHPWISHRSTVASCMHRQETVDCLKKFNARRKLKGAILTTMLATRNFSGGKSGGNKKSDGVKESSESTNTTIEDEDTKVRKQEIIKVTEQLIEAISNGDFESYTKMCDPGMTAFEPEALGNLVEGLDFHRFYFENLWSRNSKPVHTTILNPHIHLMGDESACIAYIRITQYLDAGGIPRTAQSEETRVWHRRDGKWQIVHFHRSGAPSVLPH

[4] = molecular target: T2, Ephrin type-B receptor 1 (Homo sapiens) (UniProt P54762); test: EphB1(h) Eurofins kinase panel
T2 sequence (whole entry): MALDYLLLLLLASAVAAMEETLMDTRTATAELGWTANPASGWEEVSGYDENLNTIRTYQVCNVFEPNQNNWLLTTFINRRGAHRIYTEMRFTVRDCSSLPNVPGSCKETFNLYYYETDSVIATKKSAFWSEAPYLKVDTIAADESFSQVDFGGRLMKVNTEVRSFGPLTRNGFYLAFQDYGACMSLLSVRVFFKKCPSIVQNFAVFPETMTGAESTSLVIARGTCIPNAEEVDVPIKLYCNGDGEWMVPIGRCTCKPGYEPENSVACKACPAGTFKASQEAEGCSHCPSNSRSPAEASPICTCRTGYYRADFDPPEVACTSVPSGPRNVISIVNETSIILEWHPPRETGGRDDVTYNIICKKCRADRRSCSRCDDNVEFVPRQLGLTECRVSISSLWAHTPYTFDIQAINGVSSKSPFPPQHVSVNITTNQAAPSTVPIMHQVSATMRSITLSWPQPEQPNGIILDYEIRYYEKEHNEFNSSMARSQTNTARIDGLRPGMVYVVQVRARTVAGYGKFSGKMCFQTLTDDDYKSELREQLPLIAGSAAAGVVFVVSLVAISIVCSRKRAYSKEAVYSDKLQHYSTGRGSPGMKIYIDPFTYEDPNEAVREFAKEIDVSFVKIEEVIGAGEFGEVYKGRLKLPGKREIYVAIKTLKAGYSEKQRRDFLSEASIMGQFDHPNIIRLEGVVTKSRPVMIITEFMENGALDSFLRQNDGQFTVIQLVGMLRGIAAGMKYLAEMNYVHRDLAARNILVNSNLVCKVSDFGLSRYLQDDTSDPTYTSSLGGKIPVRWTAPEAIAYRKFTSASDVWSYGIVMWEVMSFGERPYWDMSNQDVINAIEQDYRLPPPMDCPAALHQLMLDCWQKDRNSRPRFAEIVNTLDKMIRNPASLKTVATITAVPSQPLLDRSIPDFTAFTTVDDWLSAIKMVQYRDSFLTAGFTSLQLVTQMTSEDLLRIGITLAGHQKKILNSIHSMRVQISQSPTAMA

[5] = molecular target: T3, Beta-adrenergic receptor kinase 1 (Homo sapiens) (UniProt P25098); test: GRK2(h) Eurofins kinase panel
T3 sequence (whole entry): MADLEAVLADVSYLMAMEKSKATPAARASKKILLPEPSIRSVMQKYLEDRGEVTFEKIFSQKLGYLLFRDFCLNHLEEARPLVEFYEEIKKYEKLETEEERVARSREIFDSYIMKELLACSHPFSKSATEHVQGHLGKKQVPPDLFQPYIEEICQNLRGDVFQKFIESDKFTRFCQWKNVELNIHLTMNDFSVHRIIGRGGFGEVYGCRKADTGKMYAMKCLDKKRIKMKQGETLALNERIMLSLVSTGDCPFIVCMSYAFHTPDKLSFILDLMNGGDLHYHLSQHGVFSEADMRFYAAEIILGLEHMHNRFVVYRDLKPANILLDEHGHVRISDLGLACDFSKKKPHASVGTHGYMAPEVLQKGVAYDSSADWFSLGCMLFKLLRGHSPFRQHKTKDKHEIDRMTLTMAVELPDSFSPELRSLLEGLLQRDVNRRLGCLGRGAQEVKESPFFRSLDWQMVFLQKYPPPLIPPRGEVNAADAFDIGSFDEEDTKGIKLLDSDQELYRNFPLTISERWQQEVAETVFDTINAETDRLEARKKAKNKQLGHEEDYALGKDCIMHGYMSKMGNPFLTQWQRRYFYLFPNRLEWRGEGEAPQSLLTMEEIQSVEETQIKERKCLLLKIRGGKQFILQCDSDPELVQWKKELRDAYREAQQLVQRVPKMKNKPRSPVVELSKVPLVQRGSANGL

[6] = molecular target: Maternal embryonic leucine zipper kinase (Homo sapiens) (UniProt Q14680); test: MELK(h) Eurofins kinase panel
Maternal embryonic leucine zipper kinase (Homo sapiens), sequence (Q14680 whole entry, looked up): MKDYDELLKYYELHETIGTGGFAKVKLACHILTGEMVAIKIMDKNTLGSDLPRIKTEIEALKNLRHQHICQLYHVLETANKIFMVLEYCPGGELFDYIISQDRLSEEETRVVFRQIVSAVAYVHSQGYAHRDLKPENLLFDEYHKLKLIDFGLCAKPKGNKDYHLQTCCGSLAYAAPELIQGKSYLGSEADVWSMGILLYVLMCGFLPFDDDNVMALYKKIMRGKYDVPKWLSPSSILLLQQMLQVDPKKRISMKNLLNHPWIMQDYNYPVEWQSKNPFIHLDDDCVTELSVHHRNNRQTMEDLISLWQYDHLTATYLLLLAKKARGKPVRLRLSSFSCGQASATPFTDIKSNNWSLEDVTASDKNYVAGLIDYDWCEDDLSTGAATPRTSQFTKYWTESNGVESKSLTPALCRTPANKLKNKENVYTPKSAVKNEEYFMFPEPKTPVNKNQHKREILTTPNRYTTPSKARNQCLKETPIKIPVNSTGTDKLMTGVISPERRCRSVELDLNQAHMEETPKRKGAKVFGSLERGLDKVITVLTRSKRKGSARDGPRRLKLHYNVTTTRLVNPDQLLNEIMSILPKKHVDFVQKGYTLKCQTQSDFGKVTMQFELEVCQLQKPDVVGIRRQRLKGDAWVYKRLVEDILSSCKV

[7] = molecular target: Protein kinase C eta type (Homo sapiens) (UniProt P24723); test: PKCeta (h) Eurofins kinase panel
Protein kinase C eta type (Homo sapiens), sequence (P24723 whole entry): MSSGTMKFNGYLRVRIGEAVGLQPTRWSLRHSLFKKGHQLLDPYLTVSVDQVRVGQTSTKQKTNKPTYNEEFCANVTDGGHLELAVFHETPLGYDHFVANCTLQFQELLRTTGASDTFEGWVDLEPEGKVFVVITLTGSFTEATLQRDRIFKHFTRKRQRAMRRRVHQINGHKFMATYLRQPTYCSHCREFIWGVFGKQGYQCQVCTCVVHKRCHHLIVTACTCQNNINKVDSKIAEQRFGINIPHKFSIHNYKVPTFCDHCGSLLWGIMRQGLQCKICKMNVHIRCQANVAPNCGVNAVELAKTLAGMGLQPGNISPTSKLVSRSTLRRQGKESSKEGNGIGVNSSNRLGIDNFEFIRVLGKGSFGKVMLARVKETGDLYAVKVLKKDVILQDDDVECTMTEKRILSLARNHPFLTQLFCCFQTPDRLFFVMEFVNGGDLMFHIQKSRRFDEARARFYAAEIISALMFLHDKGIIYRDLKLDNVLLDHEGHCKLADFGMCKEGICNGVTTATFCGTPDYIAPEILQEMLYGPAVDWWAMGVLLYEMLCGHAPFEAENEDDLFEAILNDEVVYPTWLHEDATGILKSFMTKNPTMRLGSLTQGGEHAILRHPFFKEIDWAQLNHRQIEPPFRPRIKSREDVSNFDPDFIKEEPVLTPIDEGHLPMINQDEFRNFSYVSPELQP

[8] = molecular target: Tau-tubulin kinase 2 (Homo sapiens) (UniProt Q6IQ55); test: TTBK2(h) Eurofins kinase panel
Tau-tubulin kinase 2 (Homo sapiens), sequence (Q6IQ55 whole entry): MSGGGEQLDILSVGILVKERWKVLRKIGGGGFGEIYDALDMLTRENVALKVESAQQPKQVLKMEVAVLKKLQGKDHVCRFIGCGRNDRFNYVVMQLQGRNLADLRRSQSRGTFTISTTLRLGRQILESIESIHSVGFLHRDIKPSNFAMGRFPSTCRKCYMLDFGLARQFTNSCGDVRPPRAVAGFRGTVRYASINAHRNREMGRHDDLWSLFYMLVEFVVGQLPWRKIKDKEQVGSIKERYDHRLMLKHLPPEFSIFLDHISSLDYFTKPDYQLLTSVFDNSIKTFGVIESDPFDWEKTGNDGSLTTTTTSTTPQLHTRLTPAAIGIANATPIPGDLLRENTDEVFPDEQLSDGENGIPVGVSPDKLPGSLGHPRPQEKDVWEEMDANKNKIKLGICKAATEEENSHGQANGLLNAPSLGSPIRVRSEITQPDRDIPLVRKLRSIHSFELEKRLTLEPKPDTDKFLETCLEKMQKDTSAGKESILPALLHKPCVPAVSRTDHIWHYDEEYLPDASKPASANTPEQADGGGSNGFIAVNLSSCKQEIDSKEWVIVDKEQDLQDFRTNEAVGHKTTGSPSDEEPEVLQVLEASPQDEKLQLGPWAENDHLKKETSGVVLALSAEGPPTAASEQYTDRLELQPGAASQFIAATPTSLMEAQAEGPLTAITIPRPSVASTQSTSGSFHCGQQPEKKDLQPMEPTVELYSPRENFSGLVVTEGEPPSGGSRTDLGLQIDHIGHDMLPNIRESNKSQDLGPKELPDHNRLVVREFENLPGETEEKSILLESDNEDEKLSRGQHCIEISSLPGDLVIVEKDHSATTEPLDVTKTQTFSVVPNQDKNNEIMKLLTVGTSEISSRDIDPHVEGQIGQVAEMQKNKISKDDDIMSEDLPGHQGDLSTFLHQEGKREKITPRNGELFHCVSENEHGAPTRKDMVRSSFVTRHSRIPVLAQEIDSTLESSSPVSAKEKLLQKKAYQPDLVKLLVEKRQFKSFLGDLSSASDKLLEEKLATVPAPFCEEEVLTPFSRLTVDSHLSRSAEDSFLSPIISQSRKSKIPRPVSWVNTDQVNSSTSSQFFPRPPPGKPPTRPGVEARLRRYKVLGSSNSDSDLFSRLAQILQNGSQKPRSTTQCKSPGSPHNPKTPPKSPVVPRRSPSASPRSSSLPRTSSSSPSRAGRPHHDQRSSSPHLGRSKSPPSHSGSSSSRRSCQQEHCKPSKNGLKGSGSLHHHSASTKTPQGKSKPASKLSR

[9] = molecular target: T4, Serine/threonine-protein kinase ULK3 (Homo sapiens) (UniProt Q6PHR2); test: ULK3(h) Eurofins kinase panel
T4 sequence (whole entry): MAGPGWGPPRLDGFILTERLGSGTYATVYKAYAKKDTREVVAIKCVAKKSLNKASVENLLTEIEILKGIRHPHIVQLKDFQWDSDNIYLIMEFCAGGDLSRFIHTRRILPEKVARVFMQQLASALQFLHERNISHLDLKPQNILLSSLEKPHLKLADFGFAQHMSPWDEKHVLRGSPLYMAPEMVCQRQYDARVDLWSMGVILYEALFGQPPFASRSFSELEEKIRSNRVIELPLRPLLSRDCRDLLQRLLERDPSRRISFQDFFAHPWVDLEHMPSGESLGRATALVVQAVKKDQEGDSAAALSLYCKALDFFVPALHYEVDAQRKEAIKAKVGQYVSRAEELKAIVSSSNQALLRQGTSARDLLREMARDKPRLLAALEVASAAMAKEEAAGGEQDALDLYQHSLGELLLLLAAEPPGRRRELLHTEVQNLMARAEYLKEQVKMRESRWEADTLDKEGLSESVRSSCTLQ

Measured: % residual kinase activity

CCc1ccccc1C(=O)Nc1n[nH]c2c(C)c(F)c(C3C(C#N)=C(C)N(C)C(C)=C3C#N)cc12 [BAY-3827]
inactive: [1] 90% | [2] 99% | [3] 81% | [4] 96% | [5] 102% | [6] 39% | [7] 92% | [8] 108% | [9] 59%
